From patent US20140106967A1, “AUXIN PLANT GROWTH REGULATORS” (The Governors of The University of Alberta, priority 2011, published 2014) come the findings set out here.

Assay [1] deals with Pisum sativum L. cv. Carneval. In words: Field study, seed yield of pea 'Carneval' (Table P1). In kind it is in vivo. The note with it: for Seed yield per 1 meter row: sprayed at about 5% first flower. From the text:
In a field study, pea (Pisum sativum L. cv. Carneval) seed with a germination rate assessed at greater than 95% was planted on May 11, 2011 into black-loam soil that had been clean-cultivated for two previous growing seasons located at the Edmonton Research Station (ER31) of the University of Alberta, Edmonton, Alberta, Canada. The treatment plots measured 2 m wide by 3 m long, comprising rows 50 cm apart. The seeds were precision-drilled by hand at 5 cm intervals in each row. At the time of seeding, fresh TagTeam® granular rhizobial inoculant was drilled with the seed at the rate of 1.11 g per 6 m^2. No herbicides or pesticides were used during this study and plots were manually weeded to maintain weed-free plots. Seed emergence began on May 26, 2011 (15 days post-planting) due to cool temperature conditions after planting. Precipitation during the growing season was within the regional average. The treatments consisted of one application of aqueous 4-methyl-indole-3-acetic acid (4-ME-IAA) solutions at 1×10^−6M, 1×10^−5M, 5×10^−5M, or 1×10^−4M in 0.1% (v/v) Tween 80, or an aqueous control solution (0.1% [v/v] Tween 80) applied to the plants on Jul. 10, 2011, when about 5% of the plants were in first flower (1 treatment per plot; 5 treatments/plots total). A separate Chapin 20000-type 4 L pneumatic sprayer was used for applying each treatment solution; each sprayer was equipped with a medium-delivery blue fan nozzle designed to deliver 1.4 L per minute at the normal operating pressure of 40 PSI. Each plot was sprayed with a total of 0.7 L of solution to obtain uniform coverage. At the time of spraying, the mean day temperature was 15.9° C., the mean wind speed was 7 km/h, the relative humidity was 86%, and the sky was overcast. Harvesting (by hand) took place Aug. 27 to 30, 2011 after the plants had desiccated naturally. The pods were further dried for six days in a forced-air drier at 30° C. prior to obtaining seed weights. Each plot was harvested in eight groups of 20 contiguous plants arranged so that each group (1 m section of row) had at least two plants immediately next to it at each end. The treatment replication unit was 20 contiguous plants as diagramed in Figure P1. As the between-row spacing was 50 cm, the yield from each group represented that from 0.5 m^2

The next assay relates to wheat 'Harvest HRS'. In words: Wheat field experiment (Table W1). In kind it is in vivo, Triticum aestivum. The note with it: 1×10^−5 M. On the procedure: The wheat (Triticum aestivum) cultivar Harvest HRS was seeded on May 20, 2011 with a target of 250 seedlings per m^2 into a field plot located at the St. Albert Field-Research Station of the University of Alberta, St. Albert, Alberta, Canada that was seeded with canola the previous season. Eight 2×4 m plots were cut out of a larger field plot with a mower producing two rows of four 2×4 m plots with a 1 m buffer between each plot and 4 m between the 4-plot rows. The hormone treatments were randomly assigned to the 2×4 plots. Aqueous solutions of 4-ME-IAA at 1×10^−5 M in 0.1% (v/v) Tween 80 or control solutions (0.1% [v/v]Tween 80) were sprayed Jul. 15, 2011 in slightly breezy (8 km/h), overcast weather, temperature 16° C. Three hours later, the sun emerged and the ambient temperature rose from 16° C. to 21° C. The relative humidity at the time of spraying was 75%. On average, 15% of the plants in the plots had their first florets open at the time of hormone application. A separate Chapin 20000-type 4 L pneumatic sprayer was used for applying the 4-ME-IAA and the control solutions; each sprayer was equipped with a medium-delivery blue fan nozzle designed to deliver 1.4 L per minute at the normal operating pressure of 40 PSI. Each plot was sprayed with a total of 0.91 L of solution to obtain uniform coverage.

Setting [2] is: At maturity, 20 spikes per plot.

Take `Cc1cccc2[nH]cc(CC(=O)O)c12` [4-ME-IAA, 4-methyl-indole-3-acetic acid]: in assay [1] (1×10^−4 M), the “increase in seed yield vs control” value stood at 28% and the “Seed yield per 1 meter row” value amounted to 123.20 ± 9.19 g. Further, the “Seed yield per 1 meter row” value in assay [1] (1×10^−5 M) was 105.63 ± 10.72 g. Also, in assay [1] (1×10^−6 M), the “increase in seed yield vs control” value stood at 43% and the “Seed yield per 1 meter row” value came to 137.84 ± 10.16 g. Further, in assay [1] (5×10^−5 M), the “Seed yield per 1 meter row” value was 78.85 ± 12.06 g. In the assay with wheat 'Harvest HRS', the “increase in seed number per floral spike” value is 10% and the “increase in seed weight per floral spike” value is listed as 12%. Moreover, in the assay on wheat 'Harvest HRS' (At maturity), the “Seed number per spike” value was 27.5 ± 1.3 and the “Seed weight per spike” value was 1.03 ± 0.05 g. In the assay on wheat 'Harvest HRS' (setting [2]), this molecule displayed a Total seed number of 550.8 ± 26.6 and a Total seed weight of 20.6 ± 1.1 g. Further, in the assay with wheat 'Harvest HRS' (Pre-harvest), the “Number of spikes per plant” value amounted to 3.825 ± 0.207 and the Plant height came to 94.5 ± 0.4 cm.
